Values joined by “and” are separate entries in the source; they are usually repeats but may differ in a detail not shown here. Identical values can stand only once.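 Grown in 96-well plates, cells were treated for 48 hours with each compound at five concentrations. Insufficient inhibition: endpoint recorded as highest concentration tested. GI50: concentration for 50% inhibition of growth. The concentration for full growth arrest is given as TGI.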
Tests used:
Experiment in all cases: DTP human tumour cell line panel, 48 h
[1] = tested on: A498 renal
[2] = tested on: ACHN renal
[3] = tested on: COLO 205 colon
[4] = tested on: DU-145 prostate
[5] = tested on: HL-60(TB) leukemia
[6] = tested on: LOX IMVI melanoma
[7] = tested on: M14 melanoma
[8] = tested on: NCI-H23 lung
[9] = tested on: NCI/ADR-RES ovarian
[10] = tested on: OVCAR-5 ovarian
[11] = tested on: SW-620 colon
[12] = tested on: T-47D breast
[13] = tested on: U251 CNS
[14] = tested on: UACC-257 melanoma
[15] = tested on: K-562 leukemia
[16] = tested on: MOLT-4 leukemia
[17] = tested on: SR leukemia

| SMILES | TGI [1] [µM] | TGI [2] [µM] | TGI [3] [µM] | TGI [4] [µM] | TGI [5] [µM] | TGI [6] [µM] | TGI [7] [µM] | TGI [8] [µM] | TGI [9] [µM] | TGI [10] [µM] | TGI [11] [µM] | TGI [12] [µM] | TGI [13] [µM] | TGI [14] [µM] | TGI [15] [µM] | TGI [16] [µM] | TGI [17] [µM] | GI50 [17] |
| --- | --- | --- | --- | --- | --- | --- | --- | --- | --- | --- | --- | --- | --- | --- | --- | --- | --- | --- |
| Nc1ncnc2c1ncn2-c1ccc([N+](=O)[O-])cn1 | > 100 | > 100 | > 100 | > 100 | > 100 | > 100 | > 100 | > 100 | > 100 | > 100 | > 100 | > 100 | > 100 | > 100 |  |  |  |  |
| OC(Cc1ccc2ccccc2n1)(C(F)(F)Cl)C(F)(F)Cl | > 10 | > 10 | > 10 | > 10 |  | > 10 | > 10 | > 10 | > 10 | > 10 | > 10 | > 10 | > 10 | > 10 | > 10 | > 10 | > 10 |  |
| NS(=O)(=O)c1nnc(NC(=O)c2cccc([N+](=O)[O-])c2)s1 |  | > 100 | > 100 | > 100 | > 100 | > 100 | > 100 | > 100 | > 100 | > 100 | > 100 | > 100 | > 100 | > 100 | > 100 | > 100 | > 100 |  |
| CC(=O)C1(C)CC(C#N)(C#N)C(C#N)=C1N (stereo unspecified) | > 100 | > 100 | > 100 | > 100 | > 100 | > 100 | > 100 | > 100 | > 100 | > 100 | > 100 | > 100 | > 100 | > 100 | > 100 | > 100 | > 100 |  |
| CC(C)CCC[C@@H](C)C1CCC2[C@@H]3CCC4C[C@@H](NS(C)(=O)=O)CC[C@]4(C)C3CC[C@@]21C (stereo partly specified) |  |  | > 100 | > 100 | > 100 | > 100 | > 100 | > 100 | > 100 |  | > 100 | > 100 | > 100 | > 100 | > 100 | > 100 | > 100 |  |
| CCCCOCOc1ccccc1P1(=O)COc2ccccc2OC1 |  | > 100 | > 100 | > 100 | > 100 | > 100 | > 100 | > 100 | > 100 | > 100 | > 100 | > 100 | > 100 | > 100 | > 100 |  | > 100 |  |
| CC(=O)Oc1c(OC(C)C)c(C)c(O[Si](C(C)C)(C(C)C)C(C)C)c2[nH]c3ccccc3c12 |  | > 100 | > 100 | > 100 | 8.43 | > 100 | > 100 | > 100 | > 100 | > 100 | > 100 | > 100 | > 100 | > 100 | > 100 | > 24.2 | 99.3 |  |
| NC(=O)C(=CNC(=S)Nc1ccc(S(=O)(=O)Nc2ccccn2)cc1)C(N)=O | > 100 | > 100 | > 100 | > 100 |  | > 100 | > 100 | > 100 | > 100 | > 100 | > 100 | > 100 | > 100 | > 100 | > 100 | 5.76 | > 100 |  |
| CCOC(=O)c1nc2ccccc2nc1Oc1ccc(C#N)cc1 | > 100 | > 100 | > 100 | > 100 | > 100 | > 100 | > 100 |  | > 100 | > 100 | > 100 | > 100 | > 100 | > 100 | > 100 | > 100 |  |  |
| Oc1cnc2c(O)cccc2c1 | > 100 | 92.9 |  | > 100 | > 100 | > 100 | > 100 |  | 66.5 | > 100 | > 100 | 91.6 | > 100 | > 100 | > 100 | > 100 | > 100 |  |
| CCOC(=O)[C@@H]1ON2O[C@H](OC3CCCCC3c3ccccc3)C[C@H]3OC(=O)[C@@H]1C32 (stereo partly specified) | > 100 | > 100 | > 100 | > 100 |  | > 100 | > 100 | > 100 | > 100 | > 100 | > 100 | > 100 | > 100 | > 100 | > 100 | > 100 | > 100 |  |
| CSC1=C(C(=O)Nc2ccc(C)cc2)C(N)=NC1=O |  | > 100 | > 100 | > 100 | > 100 | > 100 | > 100 | > 100 | > 100 |  | > 100 | > 100 | > 100 | > 100 | > 100 | > 100 | > 100 |  |
| CCOC(=O)c1sc2c(c1O)c(=O)n(-c1ccccc1)c(=S)n2-c1ccccc1 |  | > 100 | > 100 | > 100 | > 100 | > 100 | > 100 | > 100 |  | > 100 | > 100 | > 100 | > 100 | > 100 | > 100 |  | 46.9 |  |
| CC(=O)OCC1OC(n2c(N)c(C#N)c(C)c(C#N)c2=S)C(OC(C)=O)C(OC(C)=O)C1OC(C)=O (stereo unspecified) | > 100 | > 100 | > 100 | > 100 |  | > 100 | > 100 | > 100 | > 100 | > 100 | > 100 | > 100 | > 100 | > 100 |  | > 100 | > 100 | 39.5 µM and > 100 µM |
| Cc1nc(C)c(N2CCN(C(=O)O)CC2)c(=O)[nH]1 | > 100 | > 100 | > 100 | > 100 | > 100 | > 100 | > 100 | > 100 | > 100 |  | > 100 | > 100 | > 100 | > 100 | > 100 | > 100 | > 100 |  |
| NC(N)=NS(=O)(=O)c1ccc(NNC(=O)c2cccc3c(=O)c4ccccc4[nH]c23)cc1 |  | 61.4 | 54.7 | > 100 | 62.1 | 47.7 | 34.9 | 87 | > 100 | > 100 | > 100 | 59.2 | > 100 | 74.8 | 53 | 80.9 | > 100 |  |
| C=C1C(=O)O[C@H]2C/C(C)=C/CC[C@]3(C)CCC[C@](C)(CC[C@@H]12)O3 |  | 17.2 | 14.8 | > 50 |  | > 50 |  | 27.2 | 15.8 | > 50 | 17.7 | 25.9 | 17.7 | 21.7 | 18.8 | 15.7 | 22.5 |  |
| CSc1nn(C)cc2nc(C)nc1-2 | > 100 | > 100 | > 100 | > 100 | > 100 |  | > 100 | > 100 | > 100 | > 100 | > 100 | > 100 | > 100 | > 100 | > 100 | > 100 | > 100 |  |
| CCOC(=O)N(C)C(=C(F)F)C(F)(F)F |  |  | 44 | > 100 | 49.7 | 85.5 | 46.5 | 69.8 | > 100 | > 100 | 67.9 | 92.1 | > 100 | > 100 | 62.1 | 51.6 | 20.9 |  |
| Cc1cccc(/C=N\NC(=S)N2CCCCC2)n1 | 0.347 | 0.863 | 0.22 | > 100 | 0.265 | 41.6 | 0.406 | > 100 | 0.43 | > 100 | > 100 | > 100 | > 100 | 0.0589 | > 100 |  | 0.123 |  |
| COc1cc(COC(=O)N2CC=CC2C(=O)O)c([N+](=O)[O-])cc1OC (stereo unspecified) | > 100 | > 100 | > 100 | > 100 | > 100 |  | > 100 | > 100 | > 100 | > 100 | > 100 | > 100 | > 100 | > 100 | > 100 | > 100 | > 100 |  |
| CCN(CC)c1ccc(C2Nc3ccc4ccccc4c3C3=C2C(=O)CCC3)cc1 (stereo unspecified) | > 100 | 33.6 | > 100 | 62.8 |  |  | > 100 | > 100 | > 100 | > 100 | > 100 | > 100 | 33 | > 100 | > 100 | > 100 |  |  |
| COC(=O)n1c(C)c(C=O)c2ccc(OC)cc21 |  | > 100 | > 100 | > 100 | > 100 | 84.5 | > 100 | 89.7 | > 100 | > 100 |  | > 100 |  | > 100 | > 100 | > 100 | > 100 |  |
| O=[N+]([O-])c1ccc(C2=NOC(c3ccc(Cl)cc3)N2C23CC4CC(CC(C4)C2)C3)cc1 (stereo unspecified) | > 100 | > 100 | > 100 | > 100 | > 100 | > 100 | > 100 | > 100 | > 100 |  | > 100 | > 100 | > 100 | > 100 | > 100 | > 100 | > 100 |  |
| O=C(c1ccccc1)c1ccc2c(c1)nc1n2C(c2c(F)cccc2F)SC1 (stereo unspecified) | 72.5 | > 100 | 46.4 | > 100 |  | > 100 | 61 | > 100 | > 100 | > 100 | > 100 | 43.5 | > 100 | > 100 |  |  |  |  |
| CCc1cc2c(c3c1CCCC3)CC1(Cc3ccc(C(=O)OC)cc3C1)C2 (stereo unspecified) |  | > 100 | > 100 | > 100 | 51.6 | > 100 | > 100 | > 100 | > 100 | > 100 | > 100 | > 100 | > 100 | > 100 | > 100 | > 100 | 85.1 |  |
| CCCCCCNC(=S)N/N=C(\C)c1ccccn1 | 14.4 | 10 | 18.2 | 30.4 |  | 12.3 | 6.86 | 18.8 | 30.6 | 25.9 | 19.3 | 23.4 | 14.2 | 15.3 |  |  |  |  |
| CCN(CC)C(=S)SC1C(=O)NC(=O)NC1=O | 6.06 | > 100 | > 100 | > 100 | > 100 | > 100 |  | > 100 | > 100 | > 100 | > 100 | > 100 | > 100 | > 100 | > 100 | > 100 | > 100 |  |
| COc1cccc(C=C2N=C(c3ccccc3)N(n3c(-c4ccccc4)nc4ccccc4c3=O)C2=O)c1 | > 100 | > 100 | > 100 | > 100 | 59.2 | > 100 | > 100 | > 100 |  |  | > 100 | > 100 |  | > 100 | > 100 | > 100 | > 100 |  |
| CN1N=C(c2ccccc2)C(C(c2ccccc2[N+](=O)[O-])C2C(=O)N(C)N=C2c2ccccc2)C1=O (stereo unspecified) | > 100 | > 100 | > 100 | > 100 | 52 | 77.4 | > 100 | > 100 | > 100 | > 100 | > 100 | > 100 | > 100 | > 100 | > 100 | 72.7 |  |  |

Source: PubChem BioAssay (NCI)
